Data as given in the kinase profiling compilation of Christmann-Franck et al. (2016).

Assays:
Assay in all cases: radiometric filter-binding kinase assay, Kinase HotSpot
Settings in all cases: compound 0.5 µM; ATP 10 µM
GSG2 (human) = GSG2 (human) (UniProt Q8TF76)
MAPK8 (human) = MAPK8 (human) (UniProt P45983)
[1] = molecular target: JAK1 JH1 catalytic (human) (UniProt P23458)
NEK6 (human) = NEK6 (human) (UniProt Q9HC98)
EPHB2 (human) = EPHB2 (human) (UniProt P29323)
CAMK1G (human) = CAMK1G (human) (UniProt Q96NX5)
MUSK (human) = MUSK (human) (UniProt O15146)
DCLK2 (human) = DCLK2 (human) (UniProt Q8N568)
MST1R (human) = MST1R (human) (UniProt Q04912)
PLK3 (human) = PLK3 (human) (UniProt Q9H4B4)
PLK2 (human) = PLK2 (human) (UniProt Q9NYY3)
DYRK4 (human) = DYRK4 (human) (UniProt Q9NR20)
NTRK3 (human) = NTRK3 (human) (UniProt Q16288)
EPHB4 (human) = EPHB4 (human) (UniProt P54760)
EPHB4 (human), sequence (P54760 whole entry, looked up): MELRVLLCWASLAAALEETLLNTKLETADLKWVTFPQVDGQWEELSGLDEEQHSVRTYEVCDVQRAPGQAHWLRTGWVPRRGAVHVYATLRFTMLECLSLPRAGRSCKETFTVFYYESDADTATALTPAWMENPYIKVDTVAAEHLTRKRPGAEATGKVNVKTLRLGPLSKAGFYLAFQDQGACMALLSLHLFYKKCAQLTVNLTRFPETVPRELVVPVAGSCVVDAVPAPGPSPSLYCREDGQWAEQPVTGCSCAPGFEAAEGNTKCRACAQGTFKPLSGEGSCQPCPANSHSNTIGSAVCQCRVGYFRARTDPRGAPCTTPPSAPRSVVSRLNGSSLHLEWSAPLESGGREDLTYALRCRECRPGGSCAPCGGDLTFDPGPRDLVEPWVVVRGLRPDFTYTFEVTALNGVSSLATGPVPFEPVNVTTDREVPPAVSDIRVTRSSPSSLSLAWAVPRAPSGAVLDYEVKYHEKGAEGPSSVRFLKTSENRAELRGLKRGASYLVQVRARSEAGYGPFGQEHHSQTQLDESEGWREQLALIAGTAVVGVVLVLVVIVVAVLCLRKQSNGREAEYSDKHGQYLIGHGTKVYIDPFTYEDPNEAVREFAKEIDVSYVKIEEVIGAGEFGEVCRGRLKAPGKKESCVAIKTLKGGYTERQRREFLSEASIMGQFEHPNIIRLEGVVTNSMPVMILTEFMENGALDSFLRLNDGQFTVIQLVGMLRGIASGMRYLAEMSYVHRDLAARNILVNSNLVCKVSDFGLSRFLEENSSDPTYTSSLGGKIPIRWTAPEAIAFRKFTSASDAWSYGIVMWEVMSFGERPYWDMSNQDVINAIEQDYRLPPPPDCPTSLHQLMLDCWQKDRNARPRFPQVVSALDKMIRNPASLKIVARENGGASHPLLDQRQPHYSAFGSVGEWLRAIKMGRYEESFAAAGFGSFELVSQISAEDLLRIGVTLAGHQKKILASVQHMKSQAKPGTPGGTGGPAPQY

MERTK (human) = MERTK (human) (UniProt Q12866)
MATK (human) = MATK (human) (UniProt P42679)
GSK3B (human) = GSK3B (human) (UniProt P49841)
GSK3B (human), sequence (P49841 whole entry, looked up): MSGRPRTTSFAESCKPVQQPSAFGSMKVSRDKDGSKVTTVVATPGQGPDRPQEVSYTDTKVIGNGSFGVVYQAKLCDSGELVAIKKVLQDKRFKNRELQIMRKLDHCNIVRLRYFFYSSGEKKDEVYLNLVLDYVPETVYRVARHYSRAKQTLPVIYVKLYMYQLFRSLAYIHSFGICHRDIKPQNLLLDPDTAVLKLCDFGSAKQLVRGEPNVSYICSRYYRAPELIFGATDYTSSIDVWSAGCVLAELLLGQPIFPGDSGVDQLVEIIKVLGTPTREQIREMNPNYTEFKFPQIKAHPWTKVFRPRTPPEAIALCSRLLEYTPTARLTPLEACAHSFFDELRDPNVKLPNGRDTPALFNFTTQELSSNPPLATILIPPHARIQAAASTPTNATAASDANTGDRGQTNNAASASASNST

CSNK1E (human) = CSNK1E (human) (UniProt P49674)
CDK6 CCND1 (human) = CDK6 CCND1 (human) (UniProt Q00534+P24385)
SLK (human) = SLK (human) (UniProt Q9H2G2)
MARK2 (human) = MARK2 (human) (UniProt Q7KZI7)
FGFR2 (human) = FGFR2 (human) (UniProt P21802)
PHKG2 (human) = PHKG2 (human) (UniProt P15735)
STK25 (human) = STK25 (human) (UniProt O00506)
NUAK2 (human) = NUAK2 (human) (UniProt Q9H093)
PIM2 (human) = PIM2 (human) (UniProt Q9P1W9)
PIM2 (human), sequence (Q9P1W9 whole entry, looked up): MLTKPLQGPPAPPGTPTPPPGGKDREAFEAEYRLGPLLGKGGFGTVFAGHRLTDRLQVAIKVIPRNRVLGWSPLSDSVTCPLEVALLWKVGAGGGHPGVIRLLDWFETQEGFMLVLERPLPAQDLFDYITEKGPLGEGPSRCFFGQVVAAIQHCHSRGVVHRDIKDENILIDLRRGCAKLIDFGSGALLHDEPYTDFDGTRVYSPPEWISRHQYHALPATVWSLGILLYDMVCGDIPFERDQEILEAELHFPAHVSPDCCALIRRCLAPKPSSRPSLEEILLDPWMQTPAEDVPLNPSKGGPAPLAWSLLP

DYRK1B (human) = DYRK1B (human) (UniProt Q9Y463)
MAP3K9 (human) = MAP3K9 (human) (UniProt P80192)
CSNK1G3 (human) = CSNK1G3 (human) (UniProt Q9Y6M4)
NTRK1 (human) = NTRK1 (human) (UniProt P04629)
NEK2 (human) = NEK2 (human) (UniProt P51955)
NEK2 (human), sequence (P51955 whole entry, looked up): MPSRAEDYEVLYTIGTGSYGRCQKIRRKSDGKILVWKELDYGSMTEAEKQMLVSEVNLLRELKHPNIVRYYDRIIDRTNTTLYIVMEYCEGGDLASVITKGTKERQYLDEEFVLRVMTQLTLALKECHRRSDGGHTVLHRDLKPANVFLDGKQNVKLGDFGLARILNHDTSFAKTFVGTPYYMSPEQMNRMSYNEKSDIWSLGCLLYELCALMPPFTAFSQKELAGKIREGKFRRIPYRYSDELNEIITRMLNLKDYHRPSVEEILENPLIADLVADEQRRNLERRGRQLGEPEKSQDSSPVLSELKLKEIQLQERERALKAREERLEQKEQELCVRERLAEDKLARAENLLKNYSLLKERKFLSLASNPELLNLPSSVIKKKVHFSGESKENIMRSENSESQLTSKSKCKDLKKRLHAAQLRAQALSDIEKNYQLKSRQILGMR

CDK5 CDK5R1 p35 (human) = CDK5 CDK5R1 p35 (human) (UniProt Q00535+Q15078)
BRSK2 (human) = BRSK2 (human) (UniProt Q8IWQ3)
DMPK (human) = DMPK (human) (UniProt Q09013)
WNK2 (human) = WNK2 (human) (UniProt Q9Y3S1)
STK17A (human) = STK17A (human) (UniProt Q9UEE5)
TYRO3 (human) = TYRO3 (human) (UniProt Q06418)
TYRO3 (human), sequence (Q06418 whole entry, looked up): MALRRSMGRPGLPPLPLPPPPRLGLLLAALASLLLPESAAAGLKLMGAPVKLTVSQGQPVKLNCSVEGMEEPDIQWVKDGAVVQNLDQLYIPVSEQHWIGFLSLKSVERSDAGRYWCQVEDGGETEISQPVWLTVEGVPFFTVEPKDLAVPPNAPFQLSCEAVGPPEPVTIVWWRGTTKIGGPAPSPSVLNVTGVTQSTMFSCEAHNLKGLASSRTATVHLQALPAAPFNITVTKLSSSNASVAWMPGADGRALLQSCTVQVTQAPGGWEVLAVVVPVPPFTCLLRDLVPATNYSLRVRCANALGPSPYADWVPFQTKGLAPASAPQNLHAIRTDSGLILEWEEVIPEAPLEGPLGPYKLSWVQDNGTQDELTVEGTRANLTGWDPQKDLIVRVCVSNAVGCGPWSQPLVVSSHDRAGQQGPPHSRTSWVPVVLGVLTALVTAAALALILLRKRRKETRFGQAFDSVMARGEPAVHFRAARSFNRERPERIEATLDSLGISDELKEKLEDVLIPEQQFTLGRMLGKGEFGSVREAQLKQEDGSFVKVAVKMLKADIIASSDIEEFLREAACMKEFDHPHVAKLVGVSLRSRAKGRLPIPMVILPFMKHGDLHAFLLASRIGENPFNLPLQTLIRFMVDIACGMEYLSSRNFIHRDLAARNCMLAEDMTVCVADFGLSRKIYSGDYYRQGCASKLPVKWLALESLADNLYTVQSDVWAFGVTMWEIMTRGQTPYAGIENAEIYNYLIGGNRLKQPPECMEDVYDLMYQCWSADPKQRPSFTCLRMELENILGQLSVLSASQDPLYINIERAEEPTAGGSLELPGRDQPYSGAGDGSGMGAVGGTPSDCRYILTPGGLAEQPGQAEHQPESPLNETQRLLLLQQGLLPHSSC

FGFR1 (human) = FGFR1 (human) (UniProt P11362)
PTK2B (human) = PTK2B (human) (UniProt Q14289)
PASK (human) = PASK (human) (UniProt Q96RG2)
CSNK1D (human) = CSNK1D (human) (UniProt P48730)
CSNK1D (human), sequence (P48730 whole entry, looked up): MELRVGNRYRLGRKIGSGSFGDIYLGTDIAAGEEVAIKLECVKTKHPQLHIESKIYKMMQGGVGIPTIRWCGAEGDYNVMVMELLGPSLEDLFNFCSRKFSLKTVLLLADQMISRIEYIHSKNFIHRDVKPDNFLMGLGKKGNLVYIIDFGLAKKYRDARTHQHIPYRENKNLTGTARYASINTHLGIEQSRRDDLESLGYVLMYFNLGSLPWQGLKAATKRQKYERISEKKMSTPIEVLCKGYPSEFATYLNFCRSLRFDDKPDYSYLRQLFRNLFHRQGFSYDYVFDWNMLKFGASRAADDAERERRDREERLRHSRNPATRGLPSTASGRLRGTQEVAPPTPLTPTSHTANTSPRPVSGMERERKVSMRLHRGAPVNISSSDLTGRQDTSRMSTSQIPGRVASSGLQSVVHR

IRAK1 (human) = IRAK1 (human) (UniProt P51617)

EPHB2 (human), sequence (P29323 whole entry, looked up): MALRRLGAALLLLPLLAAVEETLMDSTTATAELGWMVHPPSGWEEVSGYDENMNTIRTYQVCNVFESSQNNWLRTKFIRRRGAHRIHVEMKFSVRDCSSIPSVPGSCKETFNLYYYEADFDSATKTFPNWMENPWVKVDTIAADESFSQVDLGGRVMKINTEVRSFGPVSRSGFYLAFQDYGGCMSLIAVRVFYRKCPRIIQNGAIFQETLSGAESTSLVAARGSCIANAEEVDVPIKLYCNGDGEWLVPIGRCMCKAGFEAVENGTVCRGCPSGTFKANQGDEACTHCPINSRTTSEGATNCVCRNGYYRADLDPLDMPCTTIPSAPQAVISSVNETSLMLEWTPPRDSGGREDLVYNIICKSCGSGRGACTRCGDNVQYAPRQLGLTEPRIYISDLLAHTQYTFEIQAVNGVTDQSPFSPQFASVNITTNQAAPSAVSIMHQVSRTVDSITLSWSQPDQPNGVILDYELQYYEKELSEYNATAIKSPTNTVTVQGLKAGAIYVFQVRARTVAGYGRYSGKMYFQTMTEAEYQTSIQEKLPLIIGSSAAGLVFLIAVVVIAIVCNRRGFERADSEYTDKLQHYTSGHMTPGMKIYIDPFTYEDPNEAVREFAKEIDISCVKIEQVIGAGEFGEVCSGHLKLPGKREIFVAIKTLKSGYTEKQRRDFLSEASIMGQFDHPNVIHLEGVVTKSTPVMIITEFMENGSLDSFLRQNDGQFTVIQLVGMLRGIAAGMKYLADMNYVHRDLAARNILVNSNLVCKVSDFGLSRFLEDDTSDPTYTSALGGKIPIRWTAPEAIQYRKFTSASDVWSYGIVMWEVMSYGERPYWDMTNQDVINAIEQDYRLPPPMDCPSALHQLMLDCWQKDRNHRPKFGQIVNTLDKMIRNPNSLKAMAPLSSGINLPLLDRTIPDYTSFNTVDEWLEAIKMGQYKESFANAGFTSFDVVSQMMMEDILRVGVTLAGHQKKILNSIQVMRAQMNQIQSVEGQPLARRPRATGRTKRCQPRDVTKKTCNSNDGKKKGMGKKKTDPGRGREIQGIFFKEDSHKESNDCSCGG
NEK6 (human), sequence (Q9HC98 whole entry, looked up): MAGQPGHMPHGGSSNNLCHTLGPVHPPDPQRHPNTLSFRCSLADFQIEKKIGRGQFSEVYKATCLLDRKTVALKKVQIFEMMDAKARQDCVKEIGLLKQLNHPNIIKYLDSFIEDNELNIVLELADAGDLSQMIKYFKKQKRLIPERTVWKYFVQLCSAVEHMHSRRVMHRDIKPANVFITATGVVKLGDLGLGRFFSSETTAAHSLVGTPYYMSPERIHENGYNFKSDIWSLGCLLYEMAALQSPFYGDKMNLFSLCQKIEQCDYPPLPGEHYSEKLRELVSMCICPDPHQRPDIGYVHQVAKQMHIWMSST

`Oc1ccc(-c2nc(-c3ccc(F)cc3)c(-c3ccncc3)[nH]2)cc1` showed a residual activity (GSG2 (human)) of 86.9%, a residual activity (MAPK8 (human)) of 98% and a residual activity [1] of 102%. The residual activity (NEK6 (human)) was 99.4%, the residual activity (EPHB2 (human)) was 105% and the residual activity (CAMK1G (human)) was 98.5%. For the same compound, the residual activity (MUSK (human)) was 86.8%, the residual activity (DCLK2 (human)) was 102% and the residual activity (MST1R (human)) was 102%. The residual activity (PLK3 (human)) was 96.2%, the residual activity (PLK2 (human)) was 98.7% and the residual activity (DYRK4 (human)) was 101%. The residual activity (NTRK3 (human)) was 101%, the residual activity (EPHB4 (human)) was 89% and the residual activity (MERTK (human)) was 85.2%. For the same compound, the residual activity (MATK (human)) was 90.3%, the residual activity (GSK3B (human)) was 76.6% and the residual activity (CSNK1E (human)) was 32.7%. It also gave a residual activity (CDK6 CCND1 (human)) of 97.6%, a residual activity (SLK (human)) of 91.2% and a residual activity (MARK2 (human)) of 99%. For the same compound, the residual activity (FGFR2 (human)) was 103%, the residual activity (PHKG2 (human)) was 94.3% and the residual activity (STK25 (human)) was 115%. The residual activity (NUAK2 (human)) was 128%, the residual activity (PIM2 (human)) was 106% and the residual activity (DYRK1B (human)) was 105%. For the same compound, the residual activity (MAP3K9 (human)) was 53.1%, the residual activity (CSNK1G3 (human)) was 102% and the residual activity (NTRK1 (human)) was 105%. For the same compound, the residual activity (NEK2 (human)) was 101%, the residual activity (CDK5 CDK5R1 p35 (human)) was 97.3% and the residual activity (BRSK2 (human)) was 101%. The residual activity (DMPK (human)) was 106%, the residual activity (WNK2 (human)) was 102% and the residual activity (STK17A (human)) was 101%. It also gave a residual activity (TYRO3 (human)) of 97.5%, a residual activity (FGFR1 (human)) of 86.8% and a residual activity (PTK2B (human)) of 96.2%. For the same compound, the residual activity (PASK (human)) was 79.3%, the residual activity (CSNK1D (human)) was 16.8% and the residual activity (IRAK1 (human)) was 123%.

Work on `Nc1nc(Nc2ccc(S(N)(=O)=O)cc2)nn1C(=S)Nc1c(F)cccc1F` yielded a residual activity (GSG2 (human)) of 85.3%, a residual activity (MAPK8 (human)) of 78.8% and a residual activity [1] of 4.86%. The residual activity (NEK6 (human)) was 78.8%, the residual activity (EPHB2 (human)) was 81.4% and the residual activity (CAMK1G (human)) was 95.9%. It also gave a residual activity (MUSK (human)) of 8.02%, a residual activity (DCLK2 (human)) of 40.4% and a residual activity (MST1R (human)) of 56%. It also gave a residual activity (PLK3 (human)) of 92.2%, a residual activity (PLK2 (human)) of 88.5% and a residual activity (DYRK4 (human)) of 96.5%. It also gave a residual activity (NTRK3 (human)) of 3.59%, a residual activity (EPHB4 (human)) of 51% and a residual activity (MERTK (human)) of 14.8%. For the same compound, the residual activity (MATK (human)) was 133%, the residual activity (GSK3B (human)) was 9.03% and the residual activity (CSNK1E (human)) was 91.8%. For the same compound, the residual activity (CDK6 CCND1 (human)) was 2.89%, the residual activity (SLK (human)) was 4.58% and the residual activity (MARK2 (human)) was 3.43%. It also gave a residual activity (FGFR2 (human)) of 7.43%, a residual activity (PHKG2 (human)) of 95.5% and a residual activity (STK25 (human)) of 8.18%. For the same compound, the residual activity (NUAK2 (human)) was 9.73%, the residual activity (PIM2 (human)) was 106% and the residual activity (DYRK1B (human)) was 14.1%. It also gave a residual activity (MAP3K9 (human)) of -0.373%, a residual activity (CSNK1G3 (human)) of 20.8% and a residual activity (NTRK1 (human)) of 31.7%. It also gave a residual activity (NEK2 (human)) of 98.3%, a residual activity (CDK5 CDK5R1 p35 (human)) of 11.3% and a residual activity (BRSK2 (human)) of 9.03%. For the same compound, the residual activity (DMPK (human)) was 78.4%, the residual activity (WNK2 (human)) was 97.9% and the residual activity (STK17A (human)) was 11.1%. It also gave a residual activity (TYRO3 (human)) of 29.8%, a residual activity (FGFR1 (human)) of 6.59% and a residual activity (PTK2B (human)) of 33.6%. The residual activity (PASK (human)) was 91.8%, the residual activity (CSNK1D (human)) was 83.7% and the residual activity (IRAK1 (human)) was 16.9%.
